According to patent publication US9415107B2, “Compositions and methods for the treatment of addiction and other neuropsychiatric disorders” (priority 2005, dated 2016):
Entries after “also recorded” stand apart in the source; their conditions may differ.

Tests used:
[1] = tested on: adult male Wistar rats; test: Intravenous cocaine self-administration under a multiple, alternating schedule of food reinforcement and cocaine self-administration; assay type: in vivo, rat; details: for cocaine self-administration (number of infusions): ip pretreatment; for cocaine self-administration: pretreatment with the drug alone, general statement
Method: Adult male Wistar rats were trained under a multiple, alternating schedule of cocaine and food self-administration. This schedule consisted of alternating periods of cocaine access and food reinforcement. In some instances, as described further below, three doses of cocaine (0.125, 0.25, or 0.50 mg/kg/infusion) were tested. Rats were also periodically trained with saline substitution (cocaine extinction) and food extinction during the same session.
More specifically, adult male Wistar rats were implanted with chronic jugular catheters. Following recovery from surgery, the rats were trained to respond under a multiple, alternating schedule of food reinforcement and cocaine self-administration. Food-maintained responding was used to control for the non-specific motor effects of the various treatments. During the food component of the schedule, the stimulus light located above the food response lever was illuminated to indicate the availability of food reinforcement. […] A 25-second timeout followed the delivery of each food pellet. During this timeout, the stimulus light was darkened and responses on the food lever were counted but had no scheduled consequences. Responding on the other (cocaine) lever during the food component also had no scheduled consequences. […] Following 15 minutes of access to food, all stimulus lights in the chamber were darkened for a 1-minute timeout. Following the timeout, the stimulus light above the cocaine response lever was illuminated to indicate the availability of cocaine (0.125, 0.25, or 0.5 mg/kg/infusion). […] A 20-second timeout period followed each infusion. […] After 15 minutes of access to cocaine and a 1-minute timeout, the rats were again allowed 15 minutes access to the food component of the schedule. Access to food and cocaine alternated in this manner every 15 minutes during the two hour behavioral sessions so that each rat was exposed to food and cocaine for four 15-minute periods each. Each behavioral session began with 15 minutes access to either food or cocaine, and this alternated daily. Stable baselines of responding were established when the total number of cocaine and food presentations, as well as the number of presentations during each of the four exposures each session, varied less than 10% for three consecutive sessions. At least three different doses of cocaine (e.g., 0.125, 0.25, and 0.5 mg/kg/infusion) were tested. Rats were first trained to self-administer 0.25 mg/kg/infusion, our standard dose of cocaine. When responding stabilized, the dose was changed to 0.125 or 0.5 mg/kg/infusion as appropriate.
Once stable baselines of responding were obtained, dose-response curves for the various compounds were individually generated for each rat. Rats were treated with each dose at least twice with a minimum of two days of baseline cocaine self-administration interspersed between each test. Each group of rats was tested with only two of the test compounds to minimize potential carryover effects. […] This rationale guided the selection of the doses of each of the compounds in the combination studies. Each experimental group consisted of between 8 and 10 rats.

[2] = tested on: adult male Wistar rats; test: Cue-induced reinstatement of extinguished cocaine seeking (model of relapse); assay type: in vivo, rat; details: for reinstatement of extinguished cocaine seeking: pretreatment with the drug alone, general statement
Source text: In our model, rats were exposed to alternating 15-minute periods of access to cocaine self-administration and food reinforcement. Food was used to control for potential nonspecific, ataxis effects of the drugs and combinations. […] The other preclinical model we used is the cue-induced reinstatement of extinguished cocaine seeking model of relapse. In this model, rats are trained to self-administer cocaine and the ability of conditioned cues in the environment to reinstate extinguished responding is assessed and taken as a measure of relapse.
The experiments described herein were designed to investigate whether or not drug combinations identified as effective in reducing cocaine self-administration would also block the ability of conditioned cues to reinstate extinguished cocaine-seeking behavior. Adult male Wistar rats were implanted with chronic jugular catheters and trained to self-administer cocaine (0.25 mg/kg/infusion) by pressing one of the response levers in the experimental chamber (i.e., the “active” or “cocaine” lever) under a fixed-ratio four (FR4) schedule of reinforcement during daily 2-hour sessions conducted 5 days per week. At the start of each session, both levers were extended into the chamber and the stimulus light above the active lever was illuminated to indicate the availability of cocaine. […] A 20-second timeout period followed each infusion. The stimulus light above the active lever and the house light and tone compound stimulus were extinguished during the timeout period, and the light above the active lever was illuminated once the timeout ended. When responding on the active lever varied less than 20% for two consecutive days, the response requirement was increased to FR2. When similar stability was observed under the FR2 schedule or reinforcement, the response requirement was increased to the final ratio of four. The criteria for stable responding under the FR4 schedule of reinforcement was a minimum of 10 days of exposure to this schedule that concluded with at least three consecutive days when responding varied by less than 10%. […] Once stable cocaine self-administration was observed, rats were exposed to extinction; the rats were placed into the behavioral chambers, but responding on the “cocaine” (active) lever produced no programmed consequences. Extinction training continued until responding decreased to less than 20% of baseline self-administration. Then reinstatement testing commended. The rats were placed into the experimental chambers, both response levers were extended into the chamber, and the stimulus light above the “active” lever was illuminated as during self-administration training. […] Responding on the “active” lever during reinstatement testing was taken as an index of cocaine-seeking behavior. Each experimental group consisted of 8 to 10 rats.

[3] = Pharmacokinetic interaction between cocaine, metyrapone and oxazepam (plasma concentrations by GCMS); details: presence of iv cocaine
Method: Adult male Wistar rats (90 to 120 days old) were implanted with chronic, indwelling jugular catheters and were allowed to recover from surgery. […] Thirty minutes following the drug combination or vehicle injection, the rats received intravenous injections of cocaine (0.25 mg/kg/infusion) every 2 minutes for 1 hour. After the final injection of cocaine, blood was collected from the catheter for the analysis of cocaine and its metabolites ecgonine methyl ester and benzoylecgonine. […] All drug concentrations were determined using GCMS procedures.

[4] = tested on: plasma corticosterone; test: Plasma corticosterone after metyrapone pretreatment; details: pretreatment with metyrapone
[5] = tested on: male Wistar rats; test: Forced Swim Test (FST), animal model of depression
[6] = low, ineffective dose of the drug alone

CCCCN(CC)c1nc(C)nc2c1c(C)cn2-c1c(C)cc(C)cc1C [CP-154,526]
cocaine self-administration (number of infusions) ([1]; high dose of the drug alone): reduced cocaine self-administration | cocaine self-administration (number of infusions) [1, 6]: did not significantly affect cocaine self-administration | cocaine self-administration [1]: decrease | reinstatement of extinguished cocaine seeking [2]: decrease

Cc1nnc2n1-c1ccc(Cl)cc1C(c1ccccc1)=NC2 [alprazolam]
cocaine self-administration (number of infusions) ([1]; high dose of the drug alone): reduced cocaine self-administration | cocaine self-administration (number of infusions) [1, 6]: did not significantly affect cocaine self-administration | cocaine self-administration [1]: decrease | reinstatement of extinguished cocaine seeking [2]: decrease

COC(=O)[C@H]1[C@@H](OC(=O)c2ccccc2)C[C@@H]2CC[C@H]1N2C [cocaine]
effect on plasma concentrations of metyrapone or oxazepam [3]: did not affect

CC(=O)N1CCN(c2ccc(OCC3COC(Cn4ccnc4)(c4ccc(Cl)cc4Cl)O3)cc2)CC1 (centres unmarked) [ketoconazole]
minimally effective dose that reduced cocaine self-administration by at least 50% without affecting food-maintained responding ([1]; drug alone): 25 mg/kg | cocaine self-administration (number of infusions) [1, 6]: no effect; also recorded: did not significantly affect cocaine self-administration | cocaine self-administration [1]: decrease | reinstatement of extinguished cocaine seeking [2]: decrease

CC(C)(C(=O)c1cccnc1)c1cccnc1 [metyrapone]
plasma corticosterone [4]: significant dose-related decreases | cocaine self-administration (number of infusions) ([1]; high dose of the drug alone): reduced cocaine self-administration | cocaine self-administration (number of infusions) [1, 6]: did not significantly affect cocaine self-administration; also recorded: no longer affected cocaine self-administration | cocaine self-administration [1]: decrease; also recorded: significant dose-related decreases | cocaine seeking (responding on the active lever during reinstatement) ([2]; chronic metyrapone 50 mg/kg, ip, once per day for 14 days): reduced cocaine seeking to levels seen when only saline was delivered | reinstatement of extinguished cocaine seeking [2]: decrease | immobility time in the FST ([5]; chronic administration, Met50 group (metyrapone 50 mg/kg alone)): showed a lessening of immobility time | mean immobility time relative to vehicle (tolerance) ([5]; chronically treated groups that received only Ox or Met): equal to or exceeded the vehicle

NCc1cc(=O)[nH]o1 [muscimol]
cocaine self-administration (number of infusions) ([1]; high dose of the drug alone): reduced cocaine self-administration | cocaine self-administration (number of infusions) [1, 6]: did not significantly affect cocaine self-administration
